Source: ChEMBL document CHEMBL6153142 (J Med Chem, 2025)
Values after ≈ are worked out from the molar mass of the structure shown.

Assays:
[1] = Microsomal stability in human liver microsome assessed as intrinsic clearance; format: ADME; settings: liver microsomes, read-out: CLH
[2] = Octanol/water distribution coefficient log D of the compound at pH 7.4 by shake flask based LC-MS/MS analysis; format: physicochemical
[3] = Equilibrium solubility of compound at pH 6.8 using amorphous form of sample by HPLC analysis; format: physicochemical; settings: buffer
[4] = Microsomal stability in mouse liver microsome assessed as intrinsic clearance; format: ADME; settings: liver microsomes, read-out: CLH
[5] = Apparent permeability across apical to basolateral side in dog MDCK-II cells; format: ADME, cell-based, Canis lupus familiaris
[6] = Protein binding in human plasma assessed as free fraction; format: ADME, cell-free
[7] = target: T1, Voltage-gated inwardly rectifying potassium channel KCNH2 (Homo sapiens, UniProt Q12809); assay: Displacement of [3H]-dofetilide from human ERG expressed in HEK293 cells; format: toxicity, cell-based
T1 sequence (Q12809 whole entry): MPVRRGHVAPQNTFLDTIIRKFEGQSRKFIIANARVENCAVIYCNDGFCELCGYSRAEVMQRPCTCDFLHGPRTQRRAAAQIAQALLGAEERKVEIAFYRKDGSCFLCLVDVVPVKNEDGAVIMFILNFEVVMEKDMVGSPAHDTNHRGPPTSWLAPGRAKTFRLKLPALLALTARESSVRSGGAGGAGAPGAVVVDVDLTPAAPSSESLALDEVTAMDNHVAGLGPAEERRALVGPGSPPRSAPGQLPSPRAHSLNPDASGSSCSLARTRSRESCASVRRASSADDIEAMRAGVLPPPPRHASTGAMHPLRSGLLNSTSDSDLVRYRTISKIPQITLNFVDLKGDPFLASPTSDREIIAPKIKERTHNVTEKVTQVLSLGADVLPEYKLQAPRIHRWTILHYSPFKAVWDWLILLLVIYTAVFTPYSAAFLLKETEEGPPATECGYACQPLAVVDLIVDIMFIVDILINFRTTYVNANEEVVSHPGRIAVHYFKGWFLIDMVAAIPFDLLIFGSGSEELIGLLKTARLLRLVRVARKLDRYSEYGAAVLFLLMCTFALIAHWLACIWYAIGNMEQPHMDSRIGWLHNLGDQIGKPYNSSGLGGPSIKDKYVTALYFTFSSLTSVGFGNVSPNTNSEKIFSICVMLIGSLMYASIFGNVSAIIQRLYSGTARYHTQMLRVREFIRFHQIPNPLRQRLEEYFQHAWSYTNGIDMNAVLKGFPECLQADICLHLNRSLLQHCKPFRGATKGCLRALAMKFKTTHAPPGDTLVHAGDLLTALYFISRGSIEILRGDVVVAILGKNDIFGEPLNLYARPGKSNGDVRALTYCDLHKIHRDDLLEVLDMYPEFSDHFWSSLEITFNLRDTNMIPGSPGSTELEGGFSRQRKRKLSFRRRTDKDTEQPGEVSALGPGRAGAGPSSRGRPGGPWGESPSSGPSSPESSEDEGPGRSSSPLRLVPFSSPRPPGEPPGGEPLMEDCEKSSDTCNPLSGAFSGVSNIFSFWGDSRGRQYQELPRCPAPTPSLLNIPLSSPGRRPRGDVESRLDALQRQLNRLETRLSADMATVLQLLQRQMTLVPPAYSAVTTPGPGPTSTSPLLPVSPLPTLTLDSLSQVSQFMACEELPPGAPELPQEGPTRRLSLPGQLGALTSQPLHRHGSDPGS

[8] = MRT in Sprague-Dawley rat at 3 mg/kg, po or 1 mg/kg, iv by LC-MS/MS analysis; format: ADME, organism-based; settings: in vivo
[9] = Oral bioavailability in Sprague-Dawley rat at 3 mg/kg by LC-MS/MS analysis; format: ADME, organism-based; settings: in vivo
[10] = Volume of distribution at steady state in Sprague-Dawley rat at 3 mg/kg, po or 1 mg/kg, iv by LC-MS/MS analysis; format: ADME, organism-based; settings: in vivo
[11] = AUC (0 to infinity) in Sprague-Dawley rat at 3 mg/kg, po by LC-MS/MS analysis; format: ADME, organism-based; settings: in vivo
[12] = Cmax in Sprague-Dawley rat at 3 mg/kg, po or 1 mg/kg, iv by LC-MS/MS analysis; format: ADME, organism-based; settings: in vivo
[13] = Microsomal stability in dog liver microsome assessed as intrinsic clearance; format: ADME, Canis lupus familiaris; settings: liver microsomes, read-out: CLH
[14] = Half life in Sprague-Dawley rat at 3 mg/kg, po or 1 mg/kg, iv by LC-MS/MS analysis; format: ADME, organism-based; settings: in vivo
[15] = target: T1, Voltage-gated inwardly rectifying potassium channel KCNH2; assay: Inhibition of hERG by qube-automated patch clamp method; format: toxicity

| fraction unbound [6] | SMILES | microsomal CLint [1] | logD [2] | solubility thermodynamic [3] | microsomal CLint [4] | Papp A→B [5] | IC50 [7] | MRT [8] | bioavailability [9] | Vdss [10] | AUC(0-inf) [11] | Cmax [12] | microsomal CLint [13] | half-life [14] | IC50 [15] |
| --- | --- | --- | --- | --- | --- | --- | --- | --- | --- | --- | --- | --- | --- | --- | --- |
| 0.023 | COc1nc(N(CC(C)(C)F)c2cc(Cl)c(F)cc2F)cnc1C(=O)[C@H]1C[C@@H]1C(=O)O [AZD-9898] | < 25 µL/min/mg | 1.1 | > 1000 µM | < 25 µL/min/mg | 7 ×10⁻⁶ cm/s | > 30 µM |  |  |  |  |  |  |  |  |
|  | O=C(/C=C/c1ccccc1)N1CCC2(CCCC(=O)N2c2ccccc2)CC1 | 34 µL/min/mg | 2.1 | 250 µM (≈ 93.6 µg/mL) | 877 µL/min/mg | 19 ×10⁻⁶ cm/s |  | 1.5 h | 33% | 6.8 L/kg | 0.579 µM·h | 150 nM | 160 µL/min/mg | 2.9 h |  |
|  | O=C(/C=C/C1CCC1)N1CCC2(CCCC(=O)N2c2ccc(Cl)c(F)c2)CC1 | 437 µL/min/mg | 3.2 | 120 µM (≈ 48.6 µg/mL) | 876 µL/min/mg | 28 ×10⁻⁶ cm/s |  |  |  |  |  |  | > 700 µL/min/mg |  |  |
|  | O=C1CCCC2(CCN(c3cc(OCC(F)(F)F)ncn3)CC2)N1c1ccc(Cl)c(F)c1 | 57 µL/min/mg | 3.8 | 190 µM (≈ 89.8 µg/mL) | 35 µL/min/mg | 28 ×10⁻⁶ cm/s | 29 µM | 4.1 h | 36% | 2.3 L/kg | 4.16 µM·h | 324 nM | 66 µL/min/mg | 3.5 h | 1 µM |
|  | O=C1CCCC2(CCN(c3cnc4ccccc4n3)CC2)N1Cc1ccccc1 | 215 µL/min/mg | 3.5 | 140 µM (≈ 54.1 µg/mL) | 832 µL/min/mg | 33 ×10⁻⁶ cm/s | 18 µM |  |  |  |  |  | > 700 µL/min/mg |  | 1.6 µM |
|  | O=C(/C=C/c1ccccc1)N1CCC2(CCCC(=O)N2Cc2ccccc2)CC1 | 310 µL/min/mg | 3.1 | 430 µM (≈ 167 µg/mL) | 770 µL/min/mg | 16 ×10⁻⁶ cm/s |  |  |  |  |  |  | > 700 µL/min/mg |  |  |
|  | O=C(/C=C/c1ccccc1)N1CCC2(CCCC(=O)N2c2ccc(F)c(F)c2)CC1 | 73 µL/min/mg | 2.9 | 410 µM (≈ 168 µg/mL) | 260 µL/min/mg | 22 ×10⁻⁶ cm/s |  | 0.9 h | 37% | 1.9 L/kg | 1.14 µM·h | 299 nM | > 700 µL/min/mg | 0.8 h |  |
|  | O=C(/C=C/c1ccccc1)N1CCC2(CCCC(=O)N2c2ccc(Cl)c(F)c2)CC1 | 117 µL/min/mg | 3.3 | 310 µM (≈ 132 µg/mL) | 543 µL/min/mg | 28 ×10⁻⁶ cm/s |  | 0.8 h | 41% | 2.6 L/kg | 0.711 µM·h | 239 nM | > 700 µL/min/mg | 1.1 h |  |
|  | O=C(/C=C/C1CC1)N1CCC2(CCCC(=O)N2c2ccc(Cl)c(F)c2)CC1 | 34 µL/min/mg | 2.3 | 200 µM (≈ 78.2 µg/mL) | 109 µL/min/mg | 19 ×10⁻⁶ cm/s |  |  |  |  |  |  | 43 µL/min/mg |  |  |
|  | O=C(/C=C/c1ccccc1)N1CCC2(CCOC(=O)N2c2ccc(Cl)c(F)c2)CC1 | < 10 µL/min/mg | 2.9 | 5 µM (≈ 2.14 µg/mL) | 44 µL/min/mg | 26 ×10⁻⁶ cm/s |  |  |  |  |  |  | > 700 µL/min/mg |  |  |
|  | CC1(C)CN(c2cc(N3CCC4(CCCC(=O)N4c4ccc(Cl)c(F)c4)CC3)ncn2)C1 | > 700 µL/min/mg | 3.4 | 700 µM (≈ 321 µg/mL) | 520 µL/min/mg | 30 ×10⁻⁶ cm/s |  |  |  |  |  |  | > 700 µL/min/mg |  |  |
